Article PMC9919957 (2023)

| melting point [°C] | Structure (SMILES) |
| --- | --- |
| 229 to 230 | O=C1CC(c2ccc(O)cc2)Oc2cc(OC3OC(CO)C(O)C3O)cc(O)c21 (centres unmarked) |
| 347 to 350 | NCC[C@H]1C[C@H](O)C(=O)O1 (hydrate or solvate) |
